Experimental data taken from patent US20230087342A1, “AZEPANE DERIVATIVE” (Nippon Chemiphar Co., Ltd., priority 2019, published 2023).

Target: T1, human κ opioid receptors (Homo sapiens, UniProt P41145)
T1 construct: host or cells: CHO cells
Experiment: Opioid receptor function test (Lance Ultra cAMP kit, agonist activity)
Type: cell-based
Conditions: CHO cells expressing human κ opioid receptors, 10 μM forskolin, 30 minutes
Description: Opioid Receptor Function Test
The function activity of the compound of the present invention on κ opioid receptors was examined.
Method: Using a Lance Ultra cAMP kit (Perkin Elmer), the examination was performed according to a predetermined method. In evaluation of agonist activity, CHO cells expressing human κ opioid receptors (Catalog No. CT6606, accession No. NM_000912) and a test compound were reacted in an assay buffer (1×HSS, 5 mM HEPES, pH 7.4, 0.5 mM IBMX (isobutylmethyixanthine), 0.1% SA) in the presence of 10 μM forskolin for 30 minutes. Subsequently, a cAMP detection reagent in the kit was added. One hour later, time-resolved fluorescence measurement was performed using an EnVision plate reader (Perkin Elmer). The evaluation of the test compound was performed in a concentration range of 10^−14 to 10^−7 M for the κ opioid receptor function test.

T1 sequence (P41145 whole entry): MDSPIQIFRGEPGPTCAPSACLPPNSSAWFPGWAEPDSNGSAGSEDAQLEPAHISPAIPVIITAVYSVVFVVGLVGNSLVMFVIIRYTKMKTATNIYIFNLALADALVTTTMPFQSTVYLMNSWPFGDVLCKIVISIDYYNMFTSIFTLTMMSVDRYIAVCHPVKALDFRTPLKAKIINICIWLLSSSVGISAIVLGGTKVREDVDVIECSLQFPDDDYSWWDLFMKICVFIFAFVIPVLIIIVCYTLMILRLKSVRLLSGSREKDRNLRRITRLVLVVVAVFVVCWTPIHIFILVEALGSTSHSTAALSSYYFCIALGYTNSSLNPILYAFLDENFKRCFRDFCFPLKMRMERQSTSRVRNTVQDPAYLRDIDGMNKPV

Row | SMILES | EC50 [pM]
1 | Cc1cnn(C2CC(N3CC[C@]45CCN(CC6CC6)[C@H](Cc6ccc(O)cc64)[C@]5(O)CC3)C2)c1 (single isomer, unassigned) [Example 227 (I)] | 15
2 | Cc1cnn(C2CC(N3CC[C@]45CCN(CC6CC6)[C@H](Cc6ccc(O)cc64)[C@]5(O)CC3)C2)c1 (single isomer, unassigned) [Example 227 (II)] | 160
3 | Oc1ccc2c(c1)[C@@]13CCN(CCc4cc[nH]n4)CC[C@@]1(O)[C@@H](C2)N(CC1CC1)CC3 [Example 27, (5aS,6R,11bS)-3-(2-(1H-pyrazol-3-yl)ethyl)-14-(cyclopropylmethyl)-2,3,4,5,6,7-hexahydro-6,11b-(epiminoethano)naphtho[1,2-d]azepine-5a,10(1H)-diol] | 130
4 | Oc1ccc2c(c1)[C@@]13CCN(CCc4ccco4)CC[C@@]1(O)[C@@H](C2)N(CC1CC1)CC3 [Example 32, (5aS,6R,11bS)-14-(cyclopropylmethyl)-3-(2-(furan-2-yl)ethyl)-2,3,4,5,6,7-hexahydro-6,11b-(epiminoethano)naphtho[1,2-d]azepine-5a,10(1H)-diol] | 130
5 | O=C(Cc1cscn1)N1CC[C@]23CCN(CC4CC4)[C@H](Cc4ccc(O)cc42)[C@]3(O)CC1 [Example 33, 1-((5aS,6R,11bR)-14-(cyclopropylmethyl)-5a,10-dihydroxy-1,2,5,5a,6,7-hexahydro-6,11b-(epiminoethano)naphtho[1,2-d]azepin-3(4H)-yl)-2-(thiazol-4-yl)ethan-1-one] | 920
6 | Cn1nc(CC(=O)N2CC[C@]34CCN(CC5CC5)[C@H](Cc5ccc(O)cc53)[C@]4(O)CC2)cc1C(F)(F)F [Example 36, 1-((5aS,6R,11bR)-14-(cyclopropylmethyl)-5a,10-dihydroxy-1,2,5,5a,6,7-hexahydro-6,11b-(epiminoethano)naphtho[1,2-d]azepin-3(4H)-yl)-2-(1-methyl-5-(trifluoromethyl)-1H-pyrazol-3-yl)ethan-1-one] | 25
7 | Cn1nc(CCN2CC[C@]34CCN(CC5CC5)[C@H](Cc5ccc(O)cc53)[C@]4(O)CC2)cc1C(F)(F)F [Example 37, (5aS,6R,11bS)-14-(cyclopropylmethyl)-3-(2-(1-methyl-5-(trifluoromethyl)-1H-pyrazol-3-yl)ethyl)-2,3,4,5,6,7-hexahydro-6,11b-(epiminoethano)naphtho[1,2-d]azepine-5a,10(1H)-diol] | 51
8 | Cn1cnc(CCN2CC[C@]34CCN(CC5CC5)[C@H](Cc5ccc(O)cc53)[C@]4(O)CC2)c1 [Example 41, (5aS,6R,11bS)-14-(cyclopropylmethyl)-3-(2-(1-methyl-1H-imidazol-4-yl)ethyl)-2,3,4,5,6,7-hexahydro-6,11b-(epiminoethano)naphtho[1,2-d]azepine-5a,10(1H)-diol] | 130
9 | Cc1ccn(CCN2CC[C@]34CCN(CC5CC5)[C@H](Cc5ccc(O)cc53)[C@]4(O)CC2)n1 [Example 47, (5aS,6R,11bS)-14-(cyclopropylmethyl)-3-(2-(3-methyl-1H-pyrazol-1-yl)ethyl)-2,3,4,5,6,7-hexahydro-6,11b-(epiminoethano)naphtho[1,2-d]azepine-5a,10(1H)-diol] | 230
10 | Cc1cnn(CC(=O)N2CC[C@]34CCN(CC5CC5)[C@H](Cc5ccc(O)cc53)[C@]4(O)CC2)c1 [Example 49, 1-((5aS,6R,11bR)-14-(cyclopropylmethyl)-5a,10-dihydroxy-1,2,5,5a,6,7-hexahydro-6,11b-(epiminoethano)naphtho[1,2-d]azepin-3(4H)-yl)-2-(4-methyl-1H-pyrazol-1-yl)ethan-1-one] | 89
11 | Cc1ccnn1CCN1CC[C@]23CCN(CC4CC4)[C@H](Cc4ccc(O)cc42)[C@]3(O)CC1 [Example 52, (5aS,6R,11bS)-14-(cyclopropylmethyl)-3-(2-(5-methyl-1H-pyrazol-1-yl)ethyl)-2,3,4,5,6,7-hexahydro-6,11b-(epiminoethano)naphtho[1,2-d]azepine-5a,10(1H)-diol] | 150
12 | Oc1ccc2c(c1)[C@@]13CCN(CCn4ccc(C(F)(F)F)n4)CC[C@@]1(O)[C@@H](C2)N(CC1CC1)CC3 [Example 54, (5aS,6R,11bS)-14-(cyclopropylmethyl)-3-(2-(3-(trifluoromethyl)-1H-pyrazol-1-yl)ethyl)-2,3,4,5,6,7-hexahydro-6,11b-(epiminoethano)naphtho[1,2-d]azepine-5a,10(1H)-diol] | 360
13 | Cc1cc(C)n(CCN2CC[C@]34CCN(CC5CC5)[C@H](Cc5ccc(O)cc53)[C@]4(O)CC2)n1 [Example 56, (5aS,6R,11bS)-14-(cyclopropylmethyl)-3-(2-(3,5-dimethyl-1H-pyrazol-1-yl)ethyl)-2,3,4,5,6,7-hexahydro-6,11b-(epiminoethano)naphtho[1,2-d]azepine-5a,10(1H)-diol] | 970
14 | Oc1ccc2c(c1)[C@@]13CCN(CCn4nc(C(F)F)cc4C(F)F)CC[C@@]1(O)[C@@H](C2)N(CC1CC1)CC3 [Example 58, (5aS,6R,11bS)-3-(2-(3,5-bis(difluoromethyl)-1H-pyrazol-1-yl)ethyl)-14-(cyclopropylmethyl)-2,3,4,5,6,7-hexahydro-6,11b-(epiminoethano)naphtho[1,2-d]azepine-5a,10(1H)-diol] | 140
15 | O=C(Cn1cc(Br)cn1)N1CC[C@]23CCN(CC4CC4)[C@H](Cc4ccc(O)cc42)[C@]3(O)CC1 [Example 60, 2-(4-bromo-1H-pyrazol-1-yl)-1-((5aS,6R,11bR)-14-(cyclopropylmethyl)-5a,10-dihydroxy-1,2,5,5a,6,7-hexahydro-6,11b-(epiminoethano)naphtho[1,2-d]azepin-3(4H)-yl)ethan-1-one] | 56
16 | Oc1ccc2c(c1)[C@@]13CCN(CCn4nccn4)CC[C@@]1(O)[C@@H](C2)N(CC1CC1)CC3 [Example 66, (5aS,6R,11bS)-3-(2-(2H-1,2,3-triazol-2-yl)ethyl)-14-(cyclopropylmethyl)-2,3,4,5,6,7-hexahydro-6,11b-(epiminoethano)naphtho[1,2-d]azepine-5a,10(1H)-diol] | 140
17 | Oc1ccc2c(c1)[C@@]13CCN(CCCc4ccccn4)CC[C@@]1(O)[C@@H](C2)N(CC1CC1)CC3 [Example 69, (5aS,6R,11bS)-14-(cyclopropylmethyl)-3-(3-(pyridin-2-yl)propyl)-2,3,4,5,6,7-hexahydro-6,11b-(epiminoethano)naphtho[1,2-d]azepine-5a,10(1H)-diol] | 280
18 | Oc1ccc2c(c1)[C@@]13CCN(CCc4ncccn4)CC[C@@]1(O)[C@@H](C2)N(CC1CC1)CC3 [Example 83, (5aS,6R,11bS)-14-(cyclopropylmethyl)-3-(2-(pyrimidin-2-yl)ethyl)-2,3,4,5,6,7-hexahydro-6,11b-(epiminoethano)naphtho[1,2-d]azepine-5a,10(1H)-diol] | 370
19 | Oc1ccc2c(c1)[C@@]13CCN(CCc4cnccn4)CC[C@@]1(O)[C@@H](C2)N(CC1CC1)CC3 [Example 84, (5aS,6R,11bS)-14-(cyclopropylmethyl)-3-(2-(pyrazin-2-yl)ethyl)-2,3,4,5,6,7-hexahydro-6,11b-(epiminoethano)naphtho[1,2-d]azepine-5a,10(1H)-diol] | 470
20 | Oc1ccc2c(c1)[C@@]13CCN(CCc4cccc(C(F)(F)F)n4)CC[C@@]1(O)[C@@H](C2)N(CC1CC1)CC3 [Example 88, (5aS,6R,11bS)-14-(cyclopropylmethyl)-3-(2-(6-(trifluoromethyl)pyridin-2-yl)ethyl)-2,3,4,5,6,7-hexahydro-6,11b-(epiminoethano)naphtho[1,2-d]azepine-5a,10(1H)-diol] | 750
21 | Oc1ccc2c(c1)[C@@]13CCN(CCc4ncccc4F)CC[C@@]1(O)[C@@H](C2)N(CC1CC1)CC3 [Example 100, (5aS,6R,11bS)-14-(cyclopropylmethyl)-3-(2-(3-fluoropyridin-2-yl)ethyl)-2,3,4,5,6,7-hexahydro-6,11b-(epiminoethano)naphtho[1,2-d]azepine-5a,10(1H)-diol] | 260
22 | Cc1cccnc1CCN1CC[C@]23CCN(CC4CC4)[C@H](Cc4ccc(O)cc42)[C@]3(O)CC1 [Example 102, (5aS,6R,11bS)-14-(cyclopropylmethyl)-3-(2-(3-methylpyridin-2-yl)ethyl)-2,3,4,5,6,7-hexahydro-6,11b-(epiminoethano)naphtho[1,2-d]azepine-5a,10(1H)-diol] | 130
23 | Cc1ccnc(CCN2CC[C@]34CCN(CC5CC5)[C@H](Cc5ccc(O)cc53)[C@]4(O)CC2)c1 [Example 105, (5aS,6R,11bS)-14-(cyclopropylmethyl)-3-(2-(4-methylpyridin-2-yl)ethyl)-2,3,4,5,6,7-hexahydro-6,11b-(epiminoethano)naphtho[1,2-d]azepine-5a,10(1H)-diol] | 88
24 | Oc1ccc2c(c1)[C@@]13CCN(CC4(c5ccccn5)CC4)CC[C@@]1(O)[C@@H](C2)N(CC1CC1)CC3 [Example 108, (5aS,6R,11bS)-14-(cyclopropylmethyl)-3-((1-(pyridin-2-yl)cyclopropyl)methyl)-2,3,4,5,6,7-hexahydro-6,11b-(epiminoethano)naphtho[1,2-d]azepine-5a,10(1H)-diol] | 66
25 | Oc1ccc2c(c1)[C@@]13CCN(CCc4n[nH]c5ccccc45)CC[C@@]1(O)[C@@H](C2)N(CC1CC1)CC3 [Example 112, (5aS,6R,11bS)-3-(2-(1H-indazol-3-yl)ethyl)-14-(cyclopropylmethyl)-2,3,4,5,6,7-hexahydro-6,11b-(epiminoethano)naphtho[1,2-d]azepine-5a,10(1H)-diol] | 37
26 | Cn1nc(CCN2CC[C@]34CCN(CC5CC5)[C@H](Cc5ccc(O)cc53)[C@]4(O)CC2)c2ccccc21 [Example 113, (5aS,6R,11bS)-14-(cyclopropylmethyl)-3-(2-(1-methyl-1H-indazol-3-yl)ethyl)-2,3,4,5,6,7-hexahydro-6,11b-(epiminoethano)naphtho[1,2-d]azepine-5a,10(1H)-diol] | 560
